Entries after “also recorded” stand apart in the source; their conditions may differ. Where two headings read alike, the source gives them in different places.
How the values were obtained:
IL-2 [1] = experiment: Release of IL-2 from BALB/c splenocytes stimulated with ConA; conditions: ConA 1 μg/ml
TNFα = conditions: Infection and Immunity vol.66 no.1, 1998; cited from earlier work
murine spleen cells = conditions: Infection and Immunity vol.66 no.1, 1998; cited from earlier work
human PBMC = experiment: ConA mitogen-stimulated proliferation of human PBMC ([3H]-thymidine incorporation); assay type: cell-based; conditions: for IC50: Experiment II, read-out: IC50 in inhibition of ConA induced cell proliferation of PBMC
Protocol: Blood specimens were obtained with consent from healthy human volunteers. Human peripheral blood mononuclear cells (PBMC) were isolated from heparinised whole blood by buoyant density centrifugation over Histopaque 1077 (Sigma, Poole, UK) at 600 g for 20 minutes. PBMC harvested from the ‘buffy’ layers were washed twice with RPMI 1640 medium and resuspended in CTCM. […] Human PBMC were incubated for 48 h at 37° C. in 5% CO2-air, followed by pulsing with 0.25 μCi [^3H]-thymidine (see above). After a further incubation of 24 h cells were harvested onto fibreglass filters and then counted in the presence of MicroScint-O with the Packard TopCount.
Concanavalin induced cell proliferation of human peripheral blood mononuclear cells (PBMC) was tracked, as described in I above, by a measurement of counts per minute using the scintillation counter. The inhibitory effect of an HSL compound being tested on cell proliferation was indicated by a reduction in counts per minute. […] Columns B, C and D represent different sources of human PBMC samples used.
Plots of counts per minute (cpm) against the concentration of the quorum sensing molecules and the vehicle are shown in FIG. 11.

IL-2 [2] = experiment: IL-2 production from anti-CD3 and anti-CD28 stimulated hPBMC (sandwich ELISA); assay type: cell-based, human; conditions: four donors, 24 h supernatants
Protocol: Anti-CD3 and anti-CD28 antibodies were used to assess the effect of quorum sensing signal molecules (PQS, OdDHL and OHHL) on T-cell proliferation and IL-2 secretion. Proliferation was assessed by the incorporation of [^3H]-thymidine into the DNA of PBMC and the release of cytokines in the culture supernatants was determined by ‘sandwich’ ELISA. Blood specimens were obtained with consent from four healthy human volunteers (aged between 20 and 50 years). Human PBMC were isolated from heparinised whole blood by buoyant density centrifugation over Histopaque 1077 (Sigma, Poole, UK) at 600 g for 20 minutes. […] Following the addition of 25 μl of scintillant (MicroScint-O™; Packard Bioscience Ltd. UK) to each well in the filter plates, the radioactivity in the filters was measured with a β-scintillation counter (TopCount™, Packard Bioscience Ltd, UK) according to manufacturer's specifications. […]
When T cells in hPBMC are challenged with anti-CD3 and anti-CD28 antibodies, the cytokine IL-2 is released into the culture supernatants. The levels of cytokine produced in the culture supernatants after 24 h were determined in a ‘sandwich’ ELISA. […] Following four washes, the bound biotinylated antibody was detected with 50 μl of a 1:1,000 dilution of streptavidin-peroxidase (BD Pharmingen, UK). […]

SMILES | inhibition of release of IL-2 from BALB/c splenocytes, in words (IL-2 [1]) | inhibition of TNFα production by LPS-stimulated adherent murine peritoneal macrophages (TNFα) | inhibition of ConA mitogen stimulated proliferation of murine spleen cells (murine spleen cells) | effect of OdDHL alone on ConA induced hPBMC proliferation (human PBMC; 6.25 μM, alone) | inhibition of ConA induced proliferation of human PBMC (cpm), in words (human PBMC; ConA 1 μg/ml) | IC50 (human PBMC; human PBMC source B) [µM] | IC50 (human PBMC; human PBMC source C) [µM] | IC50 (human PBMC; human PBMC source D) [µM] | inhibition of release of IL-2 from hPBMC stimulated via CD3 and CD28, in words (IL-2 [2]; listed as OdDHL) | inhibition of release of IL-2 from hPBMC stimulated via CD3 and CD28, in words (IL-2 [2])
CCCCCCCCCC(=O)CC(=O)N[C@H]1CCOC1=O [Example 6] | inhibit the release of IL-2 | inhibiting | inhibiting | inactive | inhibited proliferation of human PBMC | 60 | 7 | 34 | inhibited in a dose dependent manner the release of IL-2; also recorded: inhibits the release of IL-2 | 
CCCCCCCc1[nH]c2ccccc2c(=O)c1O [PQS] | inhibit the release of IL-2 |  |  |  |  |  |  |  |  | but not PQS, inhibits the release of IL-2

Reference: patent publication US7371779B2, “Synergistic compositions of N-acylhomoserine lactones and 4-quinolones” (The Secretary of State for Defense Science and Technology, priority 2001, dated 2008)
